This is an account of results in patent publication US12383522B2, “Baclofen formulations and methods of minimizing patient exposure to metabolite variations” (AMNEAL PHARMACEUTICALS LLC, priority 2021, dated 2025).

The nature of data set [1]: Accelerated stability studies of API/stabilizer preparations (Example 1), lactam impurity A by HPLC. In kind it is physicochemical.
For data set [2] the following is noted: background statement; cited from earlier work.

Each structure is given as a SMILES string. Read-outs that look alike come from different tables or passages of the source.

Turning to `CC(C)C[C@H](CN)CC(=O)O` [pregabalin], the “effect of EUDRAGIT E on formation of lactam impurity A” value in data set [1] is on record as “destabilization effect”.
Same read-out and setting: the same measure for `NCC1(CC(=O)O)CCCCC1` [gabapentin]: “destabilization effect”.
In the case of `O=C(O)CC(CO)c1ccc(Cl)cc1` (centres unmarked) [Treatment M1, 3-(4-chlorophenyl)-4-hydroxybutyric acid], in data set [2], the “biological activity of metabolite (limited evaluation)” value is “inactive” and the “share of dominant metabolite of baclofen (reported)” value is reported as 15%.
Regarding `NCC(CC(=O)O)c1ccc(Cl)cc1` (centres unmarked) [baclofen, 4-amino-3-(4-chlorophenyl)butanoic acid], in data set [1] (closed glass vials, 60° C. (baclofen, gabapentin) or 80° C. (pregabalin), HPLC, FIGS. 1-12), the “effect of EUDRAGIT E on formation of lactam impurity A” value is “stabilization effect”.
